Results: patent US6399654B1, “Biflavanoids and derivatives thereof as antiviral agents” (priority 1995, dated 2002)
Converted amounts (≈) assume the structure as drawn.

What was measured:
[1] = Cytotoxicity by neutral red dye uptake, MA-104 cells; conditions: African green monkey, Neutral Red IC50 (cytotoxic)
[2] = test system: Influenza A (H3N2) Beijing/32/92; assay: microbe, parasite or virus in culture; assay type: cell-based, influenza A virus; conditions: Influenza A virus, MDCK; Influenza A (H3N2) Beijing/32/92; read-out: CPE Inhibition EC50
[3] = test system: Influenza A (H1N1) Texas/36/91; assay: microbe, parasite or virus in culture; assay type: cell-based, influenza A virus; conditions: Influenza A virus, MDCK; Influenza A (H1N1) Texas/36/91; read-out: Neutral Red EC50
in vitro = conditions: dog, Neutral Red IC50 (cytotoxic)
HSV-1 = HSV-1 CPE inhibition in HFF cells; conditions: for HSV-1 SI (CC50/EC50): HFF Cells
[4] = Cytotoxicity (CC50) in HFF cells in the herpes virus tests; conditions: human
HFF Cells = assay: as above; conditions: HFF Cells; for HSV-2 CPE Inhibition CC50: HSV-2 test
[5] = test system: Respiratory Syncytial Virus; assay: microbe, parasite or virus in culture; assay type: cell-based; conditions: human respiratory syncytial virus, MA104; read-out: CPE Inhibition EC50
HIV-1 (strain LAV-1) = assay: microbe, parasite or virus in culture; assay type: cell-based

Question: For O=c1cc(-c2ccc(O)c(-c3c(O)cc4oc(-c5ccc(O)cc5)cc(=O)c4c3O)c2)oc2cc(O)cc(O)c12 [Robustaflavone (3), robustaflavone], which IC50 ([1]; Parainfluenza Type 3 Virus test) is on record?
Answer: 79 µg/mL (≈ 147 µM)

Question: And the IC50 ([1]; Respiratory Syncytial Virus test)?
Answer: ~100 µg/mL (≈ 186 µM)

Question: And the EC50 [2]?
Answer: 1.9 µg/mL (≈ 3.53 µM)

Question: What about the EC50 [3] of the same molecule?
Answer: 2 µg/mL (≈ 3.71 µM)

Question: And the IC50 (in vitro; Influenza A (H1N1) test)?
Answer: ~32 µg/mL (≈ 59.4 µM)

Question: And the IC50 (in vitro; Influenza A (H3N2) test)?
Answer: ~100 µg/mL (≈ 186 µM)

Question: What about the IC50 (in vitro; Influenza B test) of the same molecule?
Answer: 100 µg/mL (≈ 186 µM)

Question: And the “HSV-1 SI (CC50/EC50)” value (HSV-1; listed as Robustaflavone(3))?
Answer: >11.6

Question: And the “HSV-1 SI (CC50/EC50)” value (HSV-1; listed as robustaflavone (3))?
Answer: > 11.6

Question: And the EC50 (HSV-1; Human alphaherpesvirus 1, HFF, read-out: HSV-1 CPE Inhibition EC50)?
Answer: 8.6 µg/mL (≈ 16 µM)

Question: What about the CC50 at 3 days [4] of the same molecule?
Answer: > 100 µg/mL

Question: And the CC50 at 14 days [4]?
Answer: > 100 µg/mL

Question: What about the “HSV-1 CPE Inhibition CC50” value (HFF Cells; HSV-1 test) of the same molecule?
Answer: >100 µg/mL

Question: And the “HSV-2 CPE Inhibition CC50” value (HFF Cells; listed as Robustaflavone(3))?
Answer: >100 µg/mL

Question: What about the “HSV-2 CPE Inhibition CC50” value (HFF Cells; listed as robustaflavone (3)) of the same molecule?
Answer: > 100 µg/mL

Question: And the EC50 [5]?
Answer: > 100 µg/mL

Question: And the “anti-HIV-1 activity in PBM cells (in words)” value (HIV-1 (strain LAV-1))?
Answer: inactive

Question: What about the EC50 (HIV-1 (strain LAV-1); Human immunodeficiency virus 1, PBMC, human PBM cells infected with HIV-1 (strain LAV), read-out: Ant-HIV-1 in PBM cells EC50) of the same molecule?
Answer: > 100 µM

Question: And the “Selective Index (SI)” value (HIV-1 (strain LAV-1); PBM cells)?
Answer: <1
